Test: Toxicity in mouse (plasma creatinine, BUN, kidney histology)
Assay type: in vivo, ddY mice
Settings: compound 1a 1 mg/kg intravenous once per day for 5 days
Procedure: Six days after the first intravenous injection, under isoflurane anesthesia, the blood was collected from the vena cava to sacrifice the mice. Plasma creatinine and urea nitrogen (BUN) levels were respectively measured using a creatinine measurement kit (LabAssay, Wako) and a BUN measurement kit (DIUR-100, BioAssay System). Thereafter, kidneys were excised, fixed with 4% paraformaldehyde, and embedded in paraffin blocks. Then, 5-μm-thick sections were prepared. The kidney sections were stained with hematoxylin and eosin, and renal injury was evaluated using a light microscopy (Biozero, KEYENCE). In addition, when HgCl2 was administered as a positive control, plasma creatinine, BUN level and kidney sections were also evaluated by the above-mentioned methods.

[Cl][Hg][Cl] [HgCl2]
histological sections of renal tissues (hematoxylin and eosin) (HgCl2 positive control, FIG. 10C): infiltration and necrosis of inflammatory cells and damaged cells were observed
plasma concentration of creatinine (HgCl2 subcutaneous positive control, FIG. 10A): significantly increased
plasma concentration of BUN (HgCl2 subcutaneous positive control, FIG. 10B): significantly increased

From US20220040109A1, “KIDNEY-TARGETING DRUG DELIVERY CARRIER” (KYOTO PHARMACEUTICAL UNIVERSITY, priority 2017, published 2022)
